Source: patent publication US6413970B1, “Pharmaceutical composition for treating viral diseases” (UCB S.A., priority 1996, dated 2002)
Where a name gives a salt, the structure may show the parent alone.

Experiments:
Assay type in all cases: cell-based
[1] = test system: respiratory syncytial virus (RSV); experiment: RSV-specific mRNA (SH gene) expression in RSV-treated human PMN, RT-PCR; details: human PMN 1×10^6/ml, RSV 1 m.o.i., cetirizine 100-, 0.1-, 0.01 μg/10^6 PMN, 2 hours and 16 hours at 37° C., FIG. 2
Procedure: (§1) Human granulocytes were isolated from 200 ml of heparinized blood (15 U ml) from healthy donors separated on a Ficoll-metrizoate gradient followed by dextran sedimentation and washed twice at 300 g. This method led to more than 95% pure PMN. The cells were diluted to a final density of 1×10^6 PMN.
(§2) Virus preparation was performed as described by R. ARNOLD et al. in Immunology 82, 126-133 (1994). For crude preparation, respiratory syncytial virus (RSV), Long Stain (ATCC), was grown and titrated in HEP-2 cells. The RSV titre was determined in a plaque-forming unit (PFU) assay. The stock titre of the virus pool used in the study was 5×10^6 PFU/ml. The stock solution was stored at −70° C. until use. Interleukin-8 (IL-8) levels were under the detection limit in the stock solution, as analysed by enzyme-linked immuno sorbent assay (ELISA). The absence of mycoplasma infection was verified by microplasma-specific PCR. […]
The analysis of RSV-specific genomic RNA was performed by coupled reverse transcription and polymerase chain reaction PCR detection of RSV-genomic-RNA encoding for the small hydrophobic protein (SH) of RSV as described previously by R. ARNOLD et al. in Immunology 82, 126-133 (1994). […] Expression of genomic RSVSH RNA was analysed after reverse transcription with sense primers and PCR amplification of the cDNA transcripts. […]

[2] = test system: RSV-induced IL-8 release from human PMN; experiment: RSV-induced IL-8 release from human PMN, ELISA
Procedure: as §1, §2
(§3) PMN were suspended in RPMI medium at a concentration of 1×10^6/ml. […] Culture supernatants were collected and analyzed for their IL-8 content. IL-8 release was determined using a sandwich ELISA according to the method indicated hereinbefore. […] After addition of p-nitrophenylphosphate (15 mg/ml) for quantification, an ELISA reader and for calculation Mikrotek software (SLT Labinstruments, Crailsheim, Germany) were used. […]

[3] = test system: ongoing IL-8 release induced by RSV, human PMN; experiment: Ongoing IL-8 release induced by RSV in human PMN, delayed cetirizine addition, ELISA
Procedure: as §1, §2, §3

## O=C(O)COCCN1CCN(C(c2ccccc2)c2ccc(Cl)cc2)CC1 (racemic) [cetirizine dihydrochloride, 2-[2-[4-[(4-chlorophenyl)phenylmethyl]-1-piperazinyl]ethoxy]-acetic acid]
[1]
  RSV-specific mRNA expression of the small hydrophobic (SH) gene: inhibits RSV-specific mRNA expression
[2]; cetirizine at concentrations <0.01 μg/ml but >100 μg/ml (so in the source), similar after incubation up to 24 hours and RSV up to 5 m.o.i.
  RSV-induced IL-8 release at the stated concentration range: significant reduction in RSV-induced IL-8 release
[2]; human PMN 1×10^6/ml, total incubation 2 hours at 37° C., cetirizine 100-0.01 μg/ml, dose-dependent, 8 independent experiments, FIG. 3
  RSV-induced IL-8 release: down-regulated the RSV-induced IL-8 release
[3]; cetirizine concentrations >0.01 μg/ml and <10 μg/ml, strongest when added at the onset of RSV treatment
  Down regulation of RSV-induced IL-8 release, concentration range of strongest effect: most pronounced
[3]; human PMN 1×10^6/ml, RSV 1 m.o.i., cetirizine 100 μg, 10 μg, 0.01 μg added immediately, 30, 60 or 90 minutes after onset of RSV treatment, total 2 hours at 37° C., FIG. 4A-D
  ongoing IL-8 release by RSV: down regulates an ongoing IL-8 release by RSV
